Consider 1 compound from US11149035B2, “Chemical compounds as H—PGDS inhibitors” (GlaxoSmithKline Intellectual Property Development Limited, priority 2017, dated 2021).

The test system of assay [1] is limb muscle injury in male C57Bl/6N mice. The assay can be described thus: In vivo assay for functional response to muscle injury (eccentric contraction-induced muscle fatigue). Details: species or system mouse. The note with it: FIG. 1. From the text: Under anesthesia, the right hind limb of a mouse is restrained at the knee and the foot attached to a motorized footplate/force transducer. Needle electrodes are inserted into the upper limb, either side of the sciatic nerve and a current sufficient to elicit a maximal muscle contraction is applied. Muscle tension is produced by moving the footplate to lengthen the plantarflexor muscles while the limb is under maximal stimulation. This is repeated 60 times to fatigue the muscles of the lower limb. Anesthesia, limb immobilization and limb stimulation are then repeated at regular intervals to measure maximal isometric force in the recovering limb. 7 to 9 animals are tested for each test condition.

Assay [2] deals with prostaglandin D2 generation following 48/80-induced mast cell degranulation. The assay can be described thus: In vivo mast cell activation (compound 48/80-induced degranulation, PGD2 in peritoneal lavage by LC/MS/MS). Details: species or system mouse. The note with it: normal C57Bl6/N mice; oral 0.1-10 mg/kg ~1 hour prior to 48/80 i.p.; peritoneal lavage 7 minutes afterwards; FIG. 2. The protocol: Mice were randomized by body weight into 8 groups (n=8): Vehicle (0.5% HPML with 0.1% Tween80)+phosphate buffered saline (PBS), vehicle+compound 48/80 (0.75 mg/ml) and compound 48/80+Example 21 at various doses ranging from 0.1 mg/kg to 10 mg/kg.
C57BL mice were dosed orally with vehicle, or Example 21 at 0.1, 0.3, 1, 3, & 10 mg/kg. One hour later, blood samples were withdrawn via tail snip for measurement of drug levels, and mice were then terminally anesthetized with 2% isoflurane and given an intraperitoneal injection of 0.2 mL PBS or compound 48/80 solution (0.75 mg/mL, Sigma), followed by gentle massage of the abdomen. Mice were kept under anesthesia for 7 minutes prior to euthanasia. […]
Samples were thawed at room temperature and vortex-mixed. […] The plate was vortex-mixed for 30 seconds at 1000 rpm and analyzed by LC/MS/MS.
The analytical system consisted of a CTC HTS PAL autoinjector (Leap, Carrboro, N.C.), an Agilent 1290 Infinity binary pump and thermostated column compartment (Agilent Technologies, Santa Clara, Calif.) and an AB Sciex QTRAP 5500 mass spectrometer (AB Sciex, Framingham, Mass.). […] The analytes were detected by multiple reaction monitoring (MRM) in negative mode using Turbolon spray with the transitions of m/z 351/271 amu for PGD2/PGE2 and m/z 360/280 amu for PGD2-d9/PGE2-d9. […]

Consider `CC(C)(O)[C@H]1CC[C@H](NC(=O)c2cnc3nc(C4CC4)ccc3c2)CC1` [Example 21, 7-Cyclopropyl-N-((trans)-4-(2-hydroxypropan-2-yl)cyclohexyl)-1,8-naphthyridine-3-carboxamide], for which the “kinetics of recovery of maximal isometric force after injury” value in assay [1] (PO 3 and 10 mg/kg QD beginning 10 min prior to eccentric contraction challenge) was “acceleration in the kinetics of recovery”. The “initial magnitude of the injury (isometric limb force 24 hours following protocol initiation)” value in assay [1] (PO 3 and 10 mg/kg QD, 24 hours) is listed as “reduced the initial magnitude of the injury”. Further, the “48/80-induced PGD2 generation in lavage fluid” value in assay [2] is given as “prevents 48/80-induced PGD2 generation”.
